Assay results: patent US11767341B2, “Lincosamide antibiotics and uses thereof” (President and Fellows of Harvard College, priority 2017, dated 2023)
Converted amounts (≈) assume the structure as drawn.

Test system: P. aeruginosa ATCC 27853
Assay: MIC determination
Type: cell-based
Details: Pseudomonas aeruginosa, ATCC27853

| SMILES | MIC [µg/mL] |
| --- | --- |
| CSC1O[C@H]([C@H](NC(=O)[C@H]2NC[C@@H]3CC(c4ccc(F)cc4)=CCO[C@H]32)[C@H](C)Cl)C(O)[C@@H](O)[C@H]1O (some centres unmarked) [FSA-507057] | > 64 |

Test system: S. aureus BAA 977 iErmA
Assay: MIC determination
Type: cell-based
Details: Staphylococcus aureus, BAA977

| SMILES | MIC [µg/mL] |
| --- | --- |
| CSC1O[C@H]([C@H](NC(=O)[C@H]2NC[C@@H]3CC(c4ccc(F)cc4)=CCO[C@H]32)[C@H](C)Cl)C(O)[C@@H](O)[C@H]1O (some centres unmarked) [FSA-507057] | 1 (≈ 1.88 µM) |

Test system: S. pneumoniae MMX 3028 cErmB
Assay: MIC determination
Type: cell-based
Details: Streptococcus pneumoniae, MMX3028CERMB

| SMILES | MIC [µg/mL] |
| --- | --- |
| CSC1O[C@H]([C@H](NC(=O)[C@H]2NC[C@@H]3CC(c4ccc(F)cc4)=CCO[C@H]32)[C@H](C)Cl)C(O)[C@@H](O)[C@H]1O (some centres unmarked) [FSA-507057] | 64 (≈ 121 µM) |

Test system: E. coli MMX 0121 ΔTolC
Assay: MIC determination
Type: cell-based
Details: Escherichia coli

| SMILES | MIC [µg/mL] |
| --- | --- |
| CSC1O[C@H]([C@H](NC(=O)[C@H]2NC[C@@H]3CC(c4ccc(F)cc4)=CCO[C@H]32)[C@H](C)Cl)C(O)[C@@H](O)[C@H]1O (some centres unmarked) [FSA-507057] | 64 (≈ 121 µM) |

Test system: C. difficile BAA 1805
Assay: MIC determination
Type: cell-based
Details: Clostridioides difficile, BAA1805; C. difficile BAA 1805; read-out: MIC

| SMILES | MIC [µg/mL] |
| --- | --- |
| CSC1O[C@H]([C@H](NC(=O)[C@H]2NC[C@@H]3CC(c4ccc(F)cc4)=CCO[C@H]32)[C@H](C)Cl)C(O)[C@@H](O)[C@H]1O (some centres unmarked) [FSA-507057] | 16 (≈ 30.1 µM) |

Test system: E. coli MMX TolC parent strain
Assay: MIC determination
Type: cell-based
Details: Escherichia coli

| SMILES | MIC [µg/mL] |
| --- | --- |
| CSC1O[C@H]([C@H](NC(=O)[C@H]2NC[C@@H]3CC(c4ccc(F)cc4)=CCO[C@H]32)[C@H](C)Cl)C(O)[C@@H](O)[C@H]1O (some centres unmarked) [FSA-507057] | > 64 |

Test system: E. faecalis ATCC 29212
Assay: MIC determination
Type: cell-based
Details: Enterococcus faecalis, ATCC29212, read-out: MIC

| SMILES | MIC [µg/mL] |
| --- | --- |
| CSC1O[C@H]([C@H](NC(=O)[C@H]2NC[C@@H]3CC(c4ccc(F)cc4)=CCO[C@H]32)[C@H](C)Cl)C(O)[C@@H](O)[C@H]1O (some centres unmarked) [FSA-507057] | 1 (≈ 1.88 µM) |

Test system: P. aeruginosa MMX 3476 Δmex
Assay: MIC determination
Type: cell-based
Details: Pseudomonas aeruginosa

| SMILES | MIC [µg/mL] |
| --- | --- |
| CSC1O[C@H]([C@H](NC(=O)[C@H]2NC[C@@H]3CC(c4ccc(F)cc4)=CCO[C@H]32)[C@H](C)Cl)C(O)[C@@H](O)[C@H]1O (some centres unmarked) [FSA-507057] | > 64 |

Test system: E. coli ATCC 25922
Assay: MIC determination
Type: cell-based
Details: Escherichia coli, ATCC25922

| SMILES | MIC [µg/mL] |
| --- | --- |
| CSC1O[C@H]([C@H](NC(=O)[C@H]2NC[C@@H]3CC(c4ccc(F)cc4)=CCO[C@H]32)[C@H](C)Cl)C(O)[C@@H](O)[C@H]1O (some centres unmarked) [FSA-507057] | > 64 |

Test system: S. aureus MMX 3035 cErmA
Assay: MIC determination
Type: cell-based
Details: Staphylococcus aureus, MMX3035CERMA

| SMILES | MIC [µg/mL] |
| --- | --- |
| CSC1O[C@H]([C@H](NC(=O)[C@H]2NC[C@@H]3CC(c4ccc(F)cc4)=CCO[C@H]32)[C@H](C)Cl)C(O)[C@@H](O)[C@H]1O (some centres unmarked) [FSA-507057] | > 64 |

Test system: S. pyogenes ATCC 19615
Assay: MIC determination
Type: cell-based
Details: Streptococcus pyogenes, ATCC19615; S. pyogenes ATCC 19615; read-out: MIC

| SMILES | MIC [µg/mL] |
| --- | --- |
| CSC1O[C@H]([C@H](NC(=O)[C@H]2NC[C@@H]3CC(c4ccc(F)cc4)=CCO[C@H]32)[C@H](C)Cl)C(O)[C@@H](O)[C@H]1O (some centres unmarked) [FSA-507057] | 0.12 (≈ 0.226 µM) |

Test system: P. aeruginosa MMX Mex parent strain
Assay: MIC determination
Type: cell-based
Details: Pseudomonas aeruginosa

| SMILES | MIC [µg/mL] |
| --- | --- |
| CSC1O[C@H]([C@H](NC(=O)[C@H]2NC[C@@H]3CC(c4ccc(F)cc4)=CCO[C@H]32)[C@H](C)Cl)C(O)[C@@H](O)[C@H]1O (some centres unmarked) [FSA-507057] | > 64 |

Test system: E. faecalis MMX 847 Macrolide-Resistant
Assay: MIC determination
Type: cell-based
Details: Enterococcus faecalis

| SMILES | MIC [µg/mL] |
| --- | --- |
| CSC1O[C@H]([C@H](NC(=O)[C@H]2NC[C@@H]3CC(c4ccc(F)cc4)=CCO[C@H]32)[C@H](C)Cl)C(O)[C@@H](O)[C@H]1O (some centres unmarked) [FSA-507057] | > 64 |

Test system: S. aureus ATCC 29213
Assay: MIC determination
Type: cell-based
Details: Staphylococcus aureus, ATCC29213, S. aureus ATCC 29213; read-out: MIC

| SMILES | MIC [µg/mL] |
| --- | --- |
| CSC1O[C@H]([C@H](NC(=O)[C@H]2NC[C@@H]3CC(c4ccc(F)cc4)=CCO[C@H]32)[C@H](C)Cl)C(O)[C@@H](O)[C@H]1O (some centres unmarked) [FSA-507057] | 2 (≈ 3.77 µM) |

Test system: S. pneumoniae ATCC 49619
Assay: MIC determination
Type: cell-based
Details: Streptococcus pneumoniae, ATCC49619; S. pneumoniae ATCC 49619; read-out: MIC

| SMILES | MIC [µg/mL] |
| --- | --- |
| CSC1O[C@H]([C@H](NC(=O)[C@H]2NC[C@@H]3CC(c4ccc(F)cc4)=CCO[C@H]32)[C@H](C)Cl)C(O)[C@@H](O)[C@H]1O (some centres unmarked) [FSA-507057] | ≤ 0.06 |

Test system: S. pyogenes MMX 946 Macrolide-Resistant
Assay: MIC determination
Type: cell-based
Details: Streptococcus pyogenes

| SMILES | MIC [µg/mL] |
| --- | --- |
| CSC1O[C@H]([C@H](NC(=O)[C@H]2NC[C@@H]3CC(c4ccc(F)cc4)=CCO[C@H]32)[C@H](C)Cl)C(O)[C@@H](O)[C@H]1O (some centres unmarked) [FSA-507057] | > 64 |

Test system: B. fragilis ATCC 25285
Assay: MIC determination
Type: cell-based
Details: Bacteroides fragilis, ATCC25285

| SMILES | MIC [µg/mL] |
| --- | --- |
| CSC1O[C@H]([C@H](NC(=O)[C@H]2NC[C@@H]3CC(c4ccc(F)cc4)=CCO[C@H]32)[C@H](C)Cl)C(O)[C@@H](O)[C@H]1O (some centres unmarked) [FSA-507057] | 64 (≈ 121 µM) |

Test system: S. aureus Micromyx USA 300
Assay: MIC determination
Type: cell-based
Details: Staphylococcus aureus, USA300; S. aureus Micromyx USA 300; read-out: MIC

| SMILES | MIC [µg/mL] |
| --- | --- |
| CSC1O[C@H]([C@H](NC(=O)[C@H]2NC[C@@H]3CC(c4ccc(F)cc4)=CCO[C@H]32)[C@H](C)Cl)C(O)[C@@H](O)[C@H]1O (some centres unmarked) [FSA-507057] | 0.5 (≈ 0.942 µM) |

Test system: H. influenzae ATCC 49247
Assay: MIC determination
Type: cell-based
Details: Haemophilus influenzae, ATCC49247

| SMILES | MIC [µg/mL] |
| --- | --- |
| CSC1O[C@H]([C@H](NC(=O)[C@H]2NC[C@@H]3CC(c4ccc(F)cc4)=CCO[C@H]32)[C@H](C)Cl)C(O)[C@@H](O)[C@H]1O (some centres unmarked) [FSA-507057] | 64 (≈ 121 µM) |

Test system: S. pneumoniae MMX 3031 cMefA
Assay: MIC determination
Type: cell-based
Details: Streptococcus pneumoniae, MMX3031CMEFA

| SMILES | MIC [µg/mL] |
| --- | --- |
| CSC1O[C@H]([C@H](NC(=O)[C@H]2NC[C@@H]3CC(c4ccc(F)cc4)=CCO[C@H]32)[C@H](C)Cl)C(O)[C@@H](O)[C@H]1O (some centres unmarked) [FSA-507057] | ≤ 0.06 |
